From BindingDB's records for doi:10.1016/s0960-894x(01)00573-x (Pfizer, 2001)

These compounds were tested against T1, Caspase-1 (Homo sapiens, UniProt P29466) (assay: Caspase Inhibition Assay). Details: pH 7; 37 °C.
T1 sequence (P29466 whole entry): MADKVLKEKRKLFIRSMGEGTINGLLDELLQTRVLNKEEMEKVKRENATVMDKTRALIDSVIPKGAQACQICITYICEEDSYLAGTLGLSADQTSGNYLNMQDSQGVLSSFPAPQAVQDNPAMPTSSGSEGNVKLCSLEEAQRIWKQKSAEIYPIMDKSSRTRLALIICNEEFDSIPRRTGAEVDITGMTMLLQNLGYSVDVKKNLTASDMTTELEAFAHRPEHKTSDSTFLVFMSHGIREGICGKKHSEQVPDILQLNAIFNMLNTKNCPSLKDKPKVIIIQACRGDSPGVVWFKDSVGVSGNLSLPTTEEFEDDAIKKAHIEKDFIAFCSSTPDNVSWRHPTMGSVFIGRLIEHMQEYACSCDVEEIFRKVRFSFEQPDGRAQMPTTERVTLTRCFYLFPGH
Procedure: The substrate peptides terminating in AMC are processed by caspases with or without inhibitors, and the accumulation of AMC was assessed with a Cytofluor fluorescent plate reader at excitation and emission wavelengths of 380 and 460 nm. Compounds were tested, and full IC50 curves were run for all compounds expressing measurable inhibitory activity.

`CCC(CC)c1ccc(Oc2ccccc2S(=O)(=O)N[C@H](C=O)CC(=O)O)cc1` [(3S)-4-oxo-3-({2-[4-(pentan-3-yl)phenoxy]benzene}sulfonamido)butanoic acid] and `CCC(C)c1ccc(Oc2ccccc2S(=O)(=O)N[C@H](C=O)CC(=O)O)cc1` (stereo partly drawn) [(3S)-3-({2-[4-(butan-2-yl)phenoxy]benzene}sulfonamido)-4-oxobutanoic acid] are within 1.5-fold of each other in Ki: 440 nM for the first, 490 nM for the second.

First: Cc1ccc(Oc2ccccc2S(=O)(=O)N[C@H](C=O)CC(=O)O)cc1 [(3S)-3-{[2-(4-methylphenoxy)benzene]sulfonamido}-4-oxobutanoic acid]
Second: CC(C)c1ccc(Oc2ccccc2S(=O)(=O)N[C@H](C=O)CC(=O)O)cc1 [(3S)-4-oxo-3-({2-[4-(propan-2-yl)phenoxy]benzene}sulfonamido)butanoic acid]
The Ki of the first is 1.8-fold higher: 1100 nM for the first, 620 nM for the second.

`O=C[C@H](CC(=O)O)NS(=O)(=O)c1ccccc1Oc1ccccc1` [(3S)-4-oxo-3-[(2-phenoxybenzene)sulfonamido]butanoic acid] and `Cc1ccccc1Oc1ccccc1S(=O)(=O)N[C@H](C=O)CC(=O)O` [(3S)-3-{[2-(2-methylphenoxy)benzene]sulfonamido}-4-oxobutanoic acid] are within 1.5-fold of each other in Ki: 2400 nM for the first, 3000 nM for the second.

`CCC(C)c1ccc(Oc2ccccc2S(=O)(=O)N[C@H](C=O)CC(=O)O)cc1C` (stereo partly drawn) [(3S)-3-({2-[4-(butan-2-yl)-3-methylphenoxy]benzene}sulfonamido)-4-oxobutanoic acid] and `Cc1cc(Oc2ccccc2S(=O)(=O)N[C@H](C=O)CC(=O)O)ccc1C(C)C` [(3S)-3-({2-[3-methyl-4-(propan-2-yl)phenoxy]benzene}sulfonamido)-4-oxobutanoic acid] are within 1.5-fold of each other in Ki: 100 nM for the first, 110 nM for the second.

Compared with `Cc1cccc(Oc2ccccc2S(=O)(=O)N[C@H](C=O)CC(=O)O)c1C` [(3S)-3-{[2-(2,3-dimethylphenoxy)benzene]sulfonamido}-4-oxobutanoic acid], `Cc1cccc(Oc2ccccc2S(=O)(=O)N[C@H](C=O)CC(=O)O)c1` [(3S)-3-{[2-(3-methylphenoxy)benzene]sulfonamido}-4-oxobutanoic acid] is 2.3-fold lower in Ki: 1000 nM for the first, 430 nM for the second.

`O=C[C@H](CC(=O)O)NS(=O)(=O)c1ccccc1Oc1ccc(C2CCCC2)cc1` [(3S)-3-{[2-(4-cyclopentylphenoxy)benzene]sulfonamido}-4-oxobutanoic acid] and `O=C[C@H](CC(=O)O)NS(=O)(=O)c1ccccc1Oc1ccc(C2CCCCC2)cc1` [(3S)-3-{[2-(4-cyclohexylphenoxy)benzene]sulfonamido}-4-oxobutanoic acid] are within 1.5-fold of each other in Ki: 880 nM for the first, 900 nM for the second.

Compared with `O=C[C@H](CC(=O)O)NS(=O)(=O)c1ccccc1Oc1ccc(-c2ccc(C(=O)O)cc2)cc1` [4-[4-(2-{[(2S)-1-carboxy-3-oxopropan-2-yl]sulfamoyl}phenoxy)phenyl]benzoic acid], `O=C[C@H](CC(=O)O)NS(=O)(=O)c1ccccc1Oc1ccc(-c2ccccc2)cc1` [(3S)-4-oxo-3-{[2-(4-phenylphenoxy)benzene]sulfonamido}butanoic acid] is 14-fold lower in Ki: 4200 nM for the first, 290 nM for the second. The second binds more tightly here.

`Cc1cc(Oc2ccccc2S(=O)(=O)N[C@H](C=O)CC(=O)O)cc(C)c1C` [(3S)-4-oxo-3-{[2-(3,4,5-trimethylphenoxy)benzene]sulfonamido}butanoic acid] was tested, and the Ki was 450 nM.
